pIC50: −log10 of the molar value.
Molecular target: T1, recombinant human PDK1 (amino acids 51-556) (Homo sapiens, UniProt O15530)
T1 construct: containing amino acids 51-556 of the human PDK1 enzyme; made in house
T1 sequence (O15530 51-556): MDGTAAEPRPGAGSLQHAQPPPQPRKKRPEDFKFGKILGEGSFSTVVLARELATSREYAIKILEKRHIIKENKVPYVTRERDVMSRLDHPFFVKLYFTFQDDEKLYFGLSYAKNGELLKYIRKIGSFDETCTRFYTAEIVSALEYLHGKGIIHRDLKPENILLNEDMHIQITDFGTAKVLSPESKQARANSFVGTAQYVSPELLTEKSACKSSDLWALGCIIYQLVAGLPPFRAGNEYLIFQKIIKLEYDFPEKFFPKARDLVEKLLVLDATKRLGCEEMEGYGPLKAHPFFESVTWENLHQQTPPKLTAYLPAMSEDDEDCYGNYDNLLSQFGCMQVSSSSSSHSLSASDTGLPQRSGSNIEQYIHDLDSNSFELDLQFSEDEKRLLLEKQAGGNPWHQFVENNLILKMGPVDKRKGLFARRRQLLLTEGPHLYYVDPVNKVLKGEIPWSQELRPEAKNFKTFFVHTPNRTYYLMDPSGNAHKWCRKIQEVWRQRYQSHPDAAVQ
Experiment: PDK1 IMAP fluorescence polarization kinase assay
Type: biochemical
Details: 10 nM PDK1, 100 nM peptide substrate, 100 nM PIFtide, 2.5 uM ATP, 1.5 hours; numeric values

pIC50	Structure (SMILES)
7.22	Nc1ccc(N2CCC3(CCCNC3)CC2)c(NC(=O)c2csc(-c3cnn(Cc4cccs4)c3)n2)c1 [Compound 7, N-[5-amino-2-(2,9-diazaspiro[5.5]undec-9-yl)phenyl]-2-[1-(2-thienylmethyl)-1H-pyrazol-4-yl]-4-thiazolecarboxamide]
7.09	CNC1(C(N)=O)CCN(c2ccc(N)cc2NC(=O)c2csc(-c3cnn(Cc4cccs4)c3)n2)CC1 [Compound 5, 1-[4-amino-2-[[[2-[1-(2-thienylmethyl)-1H-pyrazol-4-yl]-4-thiazolyl]carbonyl]amino]phenyl]-4-(methylamino)-4-piperidinecarboxamide]

Same assay, conditions: 10 nM PDK1, 100 nM peptide substrate, 100 nM PIFtide, 2.5 uM ATP, 1.5 hours; rated A-D

Structure (SMILES)	pIC50
Nc1ccc(N2CCC[C@@H](N)C2)c(NC(=O)c2csc(-c3cnn(Cc4cccc(F)c4)c3)n2)c1 [Compound 19, N-[5-amino-2-(3(R)-amino-1-piperidinyl)phenyl]-2-[1-[(3-fluorophenyl)methyl]-1H-pyrazol-4-yl]-4-thiazolecarboxamide]	7.30 to 9.00
NCC1CCN(c2ccc(N)cc2NC(=O)c2csc(-c3cnn(Cc4cccs4)c3)n2)CC1 [Compound 8, N-[5-amino-2-[4-(aminomethyl)-1-piperidinyl]phenyl]-2-[1-(2-thienylmethyl)-1H-pyrazol-4-yl]-4-thiazolecarboxamide]	7.30 to 9.00
Nc1ccc(N2CCC[C@@H](N)C2)c(NC(=O)c2csc(-c3cnn(Cc4ccc(F)c(F)c4)c3)n2)c1 [Compound 14, N-[5-amino-2-(3(R)-amino-1-piperidinyl)phenyl]-2-[1-[(3,4-difluorophenyl)methyl]-1H-pyrazol-4-yl]-4-thiazolecarboxamide]	7.30 to 9.00
N[C@@H]1CCCN(c2c(F)cccc2NC(=O)c2csc(-c3cnn(Cc4cccnc4)c3)n2)C1 [Compound 31, N-[2-(3(R)-amino-1-piperidinyl)-3-fluorophenyl]-2-[1-(3-pyridinylmethyl)-1H-pyrazol-4-yl]-4-thiazolecarboxamide]	6.60 to 7.29
Nc1ccc(N2CC[C@@H](N)C2)c(NC(=O)c2csc(-c3cnn(Cc4cccs4)c3)n2)c1 [Compound 10, N-[5-amino-2-(3(R)-amino-1-pyrrolidinyl)phenyl]-2-[1-(2-thienylmethyl)-1H-pyrazol-4-yl]-4-thiazolecarboxamide]	7.30 to 9.00
CC(c1ccccc1)n1cc(-c2nc(C(=O)Nc3cc(N)ccc3N3CCC[C@@H](N)C3)cs2)cn1 (stereo partly drawn) [Compound 30, N-[5-amino-2-(3(R)-amino-1-piperidinyl)phenyl]-2-[1-(1-phenylethyl)-1H-pyrazol-4-yl]-4-thiazolecarboxamide]	6.60 to 7.29
N[C@@H]1CCCN(c2c(F)cccc2NC(=O)c2csc(-c3cnn(Cc4ccccc4)c3)n2)C1 [Compound 25, N-[2-(3(R)-amino-1-piperidinyl)-3-fluorophenyl]-2-[1-(phenylmethyl)-1H-pyrazol-4-yl]-4-thiazolecarboxamide]	6.60 to 7.29
CN(C)CCCn1cc(-c2nc(C(=O)Nc3cc(N)ccc3N3CCC[C@@H](N)C3)cs2)cn1 [Compound 2, N-[5-amino-2-(3(R)-amino-1-piperidinyl)phenyl]-2-[1-[3-(dimethylamino)propyl]-1H-pyrazol-4-yl]-4-thiazolecarboxamide]	6.00 to 6.60
NCC1CCN(c2c(F)cccc2NC(=O)c2csc(-c3cnn(Cc4cccs4)c3)n2)CC1 [Compound 6, N-[2-[4-(aminomethyl)-1-piperidinyl]-3-fluorophenyl]-2-[1-(2-thienylmethyl)-1H-pyrazol-4-yl]-4-thiazolecarboxamide]	6.60 to 7.29
Nc1ccc(N2CCC[C@@H](N)C2)c(NC(=O)c2csc(-c3cnn(Cc4ccccc4F)c3)n2)c1 [Compound 21, N-[5-amino-2-(3(R)-amino-1-piperidinyl)phenyl]-2-[1-[(2-fluorophenyl)methyl]-1H-pyrazol-4-yl]-4-thiazolecarboxamide]	7.30 to 9.00
N[C@@H]1CCCN(c2c(F)cccc2NC(=O)c2csc(-c3cnn(Cc4ccccn4)c3)n2)C1 [Compound 27, N-[2-(3(R)-amino-1-piperidinyl)-3-fluorophenyl]-2-[1-(2-pyridinylmethyl)-1H-pyrazol-4-yl]-4-thiazolecarboxamide]	6.60 to 7.29
Nc1ccc(N2CCC[C@@H](N)C2)c(NC(=O)c2csc(-c3cnn(Cc4cc(F)cc(F)c4)c3)n2)c1 [Compound 16, N-[5-amino-2-(3(R)-amino-1-piperidinyl)phenyl]-2-[1-[(3,5-difluorophenyl)methyl]-1H-pyrazol-4-yl]-4-thiazolecarboxamide]	7.30 to 9.00
Nc1ccc(N2CCC[C@@H](N)C2)c(NC(=O)c2csc(-c3cnn(CCc4ccccc4)c3)n2)c1 [Compound 17, N-[5-amino-2-(3(R)-amino-1-piperidinyl)phenyl]-2-[1-(2-phenylethyl)-1H-pyrazol-4-yl]-4-thiazolecarboxamide]	7.30 to 9.00
Nc1ccc(N2CCC3(CC2)OCCO3)c(NC(=O)c2csc(-c3cnn(Cc4cccc(F)c4)c3)n2)c1 [Compound 15, N-[5-amino-2-(1,4-dioxa-8-azaspiro[4.5]dec-8-yl)phenyl]-2-[1-[(3-fluorophenyl)methyl]-1H-pyrazol-4-yl]-4-thiazolecarboxamide]	7.30 to 9.00
Nc1ccc(N2CCC[C@@H](N)C2)c(NC(=O)c2csc(-c3cnn(Cc4ccccc4)c3)n2)c1 [Compound 3, N-[5-amino-2-(3(R)-amino-1-piperidinyl)phenyl]-2-[1-(phenylmethyl)-1H-pyrazol-4-yl]-4-thiazolecarboxamide]	7.30 to 9.00
Nc1ccc(N2CCC[C@@H](N)C2)c(NC(=O)c2csc(-c3cnn(Cc4ccccn4)c3)n2)c1 [Compound 13, N-[5-amino-2-(3(R)-amino-1-piperidinyl)phenyl]-2-[1-(2-pyridinylmethyl)-1H-pyrazol-4-yl]-4-thiazolecarboxamide]	7.30 to 9.00
CCOC(=O)C1CCN(c2ccc(N)cc2NC(=O)c2csc(-c3cnn(Cc4cccs4)c3)n2)CC1 [Compound 12, ethyl 1-[4-amino-2-[[[2-[1-(2-thienylmethyl)-1H-pyrazol-4-yl]-4-thiazolyl]carbonyl]amino]phenyl]-4-piperidinecarboxylate]	6.00 to 6.60
Nc1ccc(N2CC[C@@H](N)C2)c(NC(=O)c2csc(-c3cnn(Cc4ccccn4)c3)n2)c1 [Compound 29, N-[5-amino-2-(3(R)-amino-1-pyrrolidinyl)phenyl]-2-[1-(2-pyridinylmethyl)-1H-pyrazol-4-yl]-4-thiazolecarboxamide]	6.60 to 7.29

Second part, the molecule after the results:

pIC50	Structure (SMILES)
6.00 to 6.60	N[C@@H]1CCCN(c2c(F)cccc2NC(=O)c2csc(-c3cnn(CCOCc4ccccc4)c3)n2)C1 [Compound 40, N-[2-(3(R)-amino-1-piperidinyl)-3-fluorophenyl]-2-[1-[2-(phenylmethoxy)ethyl]-1H-pyrazol-4-yl]-4-thiazolecarboxamide]
6.00 to 6.60	O=C(Nc1ccccc1N1CCNCC1)c1csc(-c2cnn(Cc3cc(F)ccc3F)c2)n1 [Compound 39, 2-[1-[(2,5-difluorophenyl)methyl]-1H-pyrazol-4-yl]-N-[2-(1-piperazinyl)phenyl]-4-thiazolecarboxamide]
6.00 to 6.60	N[C@@H]1CCCN(c2c(F)cccc2NC(=O)c2csc(-c3cnn(Cc4ccccc4Br)c3)n2)C1 [Compound 49, N-[2-(3(R)-amino-1-piperidinyl)-3-fluorophenyl]-2-[1-[(2-bromophenyl)methyl]-1H-pyrazol-4-yl]-4-thiazolecarboxamide]
< 6.00	N[C@@H]1CCCN(c2c(F)cccc2NC(=O)c2csc(-c3cnn(Cc4c(F)cccc4C(F)(F)F)c3)n2)C1 [Compound 35, N-[2-(3(R)-amino-1-piperidinyl)-3-fluorophenyl]-2-[1-[[2-fluoro-6-(trifluoromethyl)phenyl]methyl]-1H-pyrazol-4-yl]-4-thiazolecarboxamide]
6.00 to 6.60	NCc1ccccc1Cn1cc(-c2nc(C(=O)Nc3cccc(F)c3N3CCC[C@@H](N)C3)cs2)cn1 [Compound 51, 2-[1-[[2-(aminomethyl)phenyl]methyl]-1H-pyrazol-4-yl]-N-[2-(3(R)-amino-1-piperidinyl)-3-fluorophenyl]-4-thiazolecarboxamide]
< 6.00	N[C@@H]1CCCN(c2c(F)cccc2NC(=O)c2csc(-c3cnn(Cc4ccccc4SC(F)(F)F)c3)n2)C1 [Compound 37, N-[2-(3(R)-amino-1-piperidinyl)-3-fluorophenyl]-2-[1-[[2-[(trifluoromethyl)thio]phenyl]methyl]-1H-pyrazol-4-yl]-4-thiazolecarboxamide]
< 6.00	N[C@@H]1CCCN(c2c(F)cccc2NC(=O)c2csc(-c3cnn(CCCOc4ccccc4)c3)n2)C1 [Compound 43, N-[2-(3(R)-amino-1-piperidinyl)-3-fluorophenyl]-2-[1-(3-phenoxypropyl)-1H-pyrazol-4-yl]-4-thiazolecarboxamide]
6.60 to 7.29	Nc1ccc(N2CCC3(CC2)OCCO3)c(NC(=O)c2csc(-c3cnn(Cc4cccs4)c3)n2)c1 [Compound 34, N-[5-amino-2-(1,4-dioxa-8-azaspiro[4.5]dec-8-yl)phenyl]-2-[1-(2-thienylmethyl)-1H-pyrazol-4-yl]-4-thiazolecarboxamide]
6.60 to 7.29	N[C@@H]1CCCN(c2c(F)cccc2NC(=O)c2csc(-c3cnn(Cc4c(F)cccc4F)c3)n2)C1 [Compound 32, N-[2-(3(R)-amino-1-piperidinyl)-3-fluorophenyl]-2-[1-[(2,6-difluorophenyl)methyl]-1H-pyrazol-4-yl]-4-thiazolecarboxamide]

From patent US20130165450A1, “Novel Thiazol-Carboximide Derivatives as PDK1 Inhibitors” (priority 2010, published 2013)
